Data taken from patent US11076594B2, “Pyrazolone compound or salt thereof, preparation method therefor, herbicide composition and use thereof” (QINGDAO KINGAGROOT CHEMICAL COMPOUNDS CO., LTD., priority 2015, dated 2021).

Key:
Assay type in all cases: in vivo
crab grass = assay: weed control effect in post-emergence stage (Table 1); design: key: Level 10: completely dead; Level 9: above 95% growth control rate; Level 8: above 90% growth control rate; Level 7: above 80% growth control rate; Level 6: above 70% growth control rate; Level 5: above 60% growth control rate; Level 4: above 50% growth control rate; Level 3: above 20% growth control rate; Level 2: 5%-20% growth control rate; Level 1: below 5% growth control rate; details: post-emergence spray at 4-5 leaf stage, 250 g/ha active ingredient with 450 kg/ha water, rated after 3 weeks in greenhouse
How it was run: (§1)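 Weed and crop seeds sown in soil-filled pots under 0.5-2 cm soil, greenhouse-grown, then sprayed at 4-5 leaf stage (2-3 weeks after sowing) with compound in acetone/Tween 80/water. Fresh weight growth control rate assessed after 3 weeks in greenhouse.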

bidens bipinnata = assay: as above; design: key: Level 10: completely dead; Level 9: above 95% growth control rate; Level 8: above 90% growth control rate; Level 7: above 80% growth control rate; Level 6: above 70% growth control rate; Level 5: above 60% growth control rate; Level 4: above 50% growth control rate; Level 3: above 20% growth control rate; Level 2: 5%-20% growth control rate; Level 1: below 5% growth control rate; details: post-emergence spray at 4-5 leaf stage, 250 g/ha active ingredient with 450 kg/ha water, rated after 3 weeks in greenhouse
How it was run: as §1

echinochloa = assay: as above; design: key: Level 10: completely dead; Level 9: above 95% growth control rate; Level 8: above 90% growth control rate; Level 7: above 80% growth control rate; Level 6: above 70% growth control rate; Level 5: above 60% growth control rate; Level 4: above 50% growth control rate; Level 3: above 20% growth control rate; Level 2: 5%-20% growth control rate; Level 1: below 5% growth control rate; details: post-emergence spray at 4-5 leaf stage, 250 g/ha active ingredient with 450 kg/ha water, rated after 3 weeks in greenhouse
How it was run: as §1

Indian mallow = assay: as above; design: key: Level 10: completely dead; Level 9: above 95% growth control rate; Level 8: above 90% growth control rate; Level 7: above 80% growth control rate; Level 6: above 70% growth control rate; Level 5: above 60% growth control rate; Level 4: above 50% growth control rate; Level 3: above 20% growth control rate; Level 2: 5%-20% growth control rate; Level 1: below 5% growth control rate; details: post-emergence spray at 4-5 leaf stage, 250 g/ha active ingredient with 450 kg/ha water, rated after 3 weeks in greenhouse
How it was run: as §1

foxtail = assay: as above; design: key: Level 10: completely dead; Level 9: above 95% growth control rate; Level 8: above 90% growth control rate; Level 7: above 80% growth control rate; Level 6: above 70% growth control rate; Level 5: above 60% growth control rate; Level 4: above 50% growth control rate; Level 3: above 20% growth control rate; Level 2: 5%-20% growth control rate; Level 1: below 5% growth control rate; details: post-emergence spray at 4-5 leaf stage, 250 g/ha active ingredient with 450 kg/ha water, rated after 3 weeks in greenhouse
How it was run: as §1

rorippa indica = assay: as above; design: key: Level 10: completely dead; Level 9: above 95% growth control rate; Level 8: above 90% growth control rate; Level 7: above 80% growth control rate; Level 6: above 70% growth control rate; Level 5: above 60% growth control rate; Level 4: above 50% growth control rate; Level 3: above 20% growth control rate; Level 2: 5%-20% growth control rate; Level 1: below 5% growth control rate; details: post-emergence spray at 4-5 leaf stage, 250 g/ha active ingredient with 450 kg/ha water, rated after 3 weeks in greenhouse
How it was run: as §1

wheat [1] = assay: wheat field test, crop selectivity, greenhouse spray at 4 leaf stage; details: 250 g/ha of the active substance; 4 weeks after treatment
How it was run: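 Seeds sown in soil-filled pots, covered 0.5-2 cm, greenhouse-grown; sprayed at 4 leaf stage (2-3 wk); acetone/methyl oleate emulsion/water formulation; 4 wk greenhouse; fresh wt control rate.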

shepherd's purse = assay: wheat field resistant broadleaf weed control, greenhouse spray at 4 leaf stage; design: key: Level 10: completely dead; Level 9: above 95% growth control rate; Level 8: above 90% growth control rate; Level 7: above 80% growth control rate; Level 6: above 70% growth control rate; Level 5: above 60% growth control rate; Level 4: above 50% growth control rate; Level 3: above 20% growth control rate; Level 2: 5%-20% growth control rate; Level 1: below 5% growth control rate; details: 250 g/ha of the active substance; 4 weeks after treatment; ALS inhibitor resistant
How it was run: (§2)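 Pot-grown weeds sown under 0.5-2 cm soil were sprayed at the 4 leaf stage, 2-3 weeks after sowing, with compound in acetone plus methyl oleate emulsion diluted in water. Plants were kept 4 weeks in the greenhouse. Activity is the growth control rate on a fresh weight basis.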

flixweed = assay: as above; design: key: Level 10: completely dead; Level 9: above 95% growth control rate; Level 8: above 90% growth control rate; Level 7: above 80% growth control rate; Level 6: above 70% growth control rate; Level 5: above 60% growth control rate; Level 4: above 50% growth control rate; Level 3: above 20% growth control rate; Level 2: 5%-20% growth control rate; Level 1: below 5% growth control rate; details: 250 g/ha of the active substance; 4 weeks after treatment; ALS inhibitor resistant
How it was run: as §2

corn gromwell = assay: as above; design: key: Level 10: completely dead; Level 9: above 95% growth control rate; Level 8: above 90% growth control rate; Level 7: above 80% growth control rate; Level 6: above 70% growth control rate; Level 5: above 60% growth control rate; Level 4: above 50% growth control rate; Level 3: above 20% growth control rate; Level 2: 5%-20% growth control rate; Level 1: below 5% growth control rate; details: 250 g/ha of the active substance; 4 weeks after treatment; ALS inhibitor resistant
How it was run: as §2

chickweed = assay: as above; design: key: Level 10: completely dead; Level 9: above 95% growth control rate; Level 8: above 90% growth control rate; Level 7: above 80% growth control rate; Level 6: above 70% growth control rate; Level 5: above 60% growth control rate; Level 4: above 50% growth control rate; Level 3: above 20% growth control rate; Level 2: 5%-20% growth control rate; Level 1: below 5% growth control rate; details: 250 g/ha of the active substance; 4 weeks after treatment; ALS inhibitor resistant
How it was run: as §2

corn = assay: post-emergence stage experiment, crop (Table 1); details: post-emergence spray at 4-5 leaf stage, 250 g/ha active ingredient with 450 kg/ha water, rated after 3 weeks in greenhouse
How it was run: as §1

wheat [2] = assay: post-emergence stage experiment, crop (Table 1); details: post-emergence spray at 4-5 leaf stage, 250 g/ha active ingredient with 450 kg/ha water, rated after 3 weeks in greenhouse
How it was run: as §1

rice = assay: post-emergence stage experiment, crop (Table 1); design: key: Level 10: completely dead; Level 9: above 95% growth control rate; Level 8: above 90% growth control rate; Level 7: above 80% growth control rate; Level 6: above 70% growth control rate; Level 5: above 60% growth control rate; Level 4: above 50% growth control rate; Level 3: above 20% growth control rate; Level 2: 5%-20% growth control rate; Level 1: below 5% growth control rate; details: post-emergence spray at 4-5 leaf stage, 250 g/ha active ingredient with 450 kg/ha water, rated after 3 weeks in greenhouse
How it was run: as §1

## CCOc1c(C(=O)Oc2c(C(=O)c3ccc(C(F)(F)F)c(-n4cc(C)cn4)c3Cl)c(C)nn2C)cnn1C [Compound 086]
Crab grass
  weed control effect, Crab grass (level): 4 (Level 4: above 50% growth control rate)
Bidens bipinnata
  weed control effect, Bidens bipinnata (level): 6 (Level 6: above 70% growth control rate)
echinochloa
  weed control effect, Echinochloa (level): 5 (Level 5: above 60% growth control rate)
Indian mallow
  weed control effect, Indian mallow (level): 10
foxtail
  weed control effect, Green foxtail (level): 2 (Level 2: 5%-20% growth control rate)
Rorippa indica
  weed control effect, Rorippa indica (level): 10
Wheat [1]
  Wheat (activity level, crop damage): 0
shepherd's purse
  shepherd's purse weed controlling effect (activity level): 10
flixweed
  flixweed weed controlling effect (activity level): 10
Corn gromwell
  corn gromwell weed controlling effect (activity level): 10
chickweed
  chickweed weed controlling effect (activity level): 10
corn
  effect on crop, Corn (level): 0
Wheat [2]
  effect on crop, Wheat (level): 0
rice
  effect on crop, Rice (level): 2 (Level 2: 5%-20% growth control rate)

## CCn1ncc(C(=O)c2ccc(C(F)(F)F)c(N3CCCC3=O)c2Cl)c1O [Compound 096]
Crab grass
  weed control effect, Crab grass (level): 5 (Level 5: above 60% growth control rate)
Bidens bipinnata
  weed control effect, Bidens bipinnata (level): 10
echinochloa
  weed control effect, Echinochloa (level): 10
Indian mallow
  weed control effect, Indian mallow (level): 10
foxtail
  weed control effect, Green foxtail (level): 10
Rorippa indica
  weed control effect, Rorippa indica (level): 10
Wheat [1]
  Wheat (activity level, crop damage): 1 (Level 1: below 5% growth control rate)
shepherd's purse
  shepherd's purse weed controlling effect (activity level): 10
flixweed
  flixweed weed controlling effect (activity level): 10
Corn gromwell
  corn gromwell weed controlling effect (activity level): 10
chickweed
  chickweed weed controlling effect (activity level): 10
corn
  effect on crop, Corn (level): 0
Wheat [2]
  effect on crop, Wheat (level): 1 (Level 1: below 5% growth control rate)
rice
  effect on crop, Rice (level): 9 (Level 9: above 95% growth control rate)

## CCc1nn(C)c(OC(=O)c2cn(C)nc2C)c1C(=O)c1ccc(C(F)(F)F)c(N2CCCCC2=O)c1Cl [Compound 111]
Crab grass
  weed control effect, Crab grass (level): 3 (Level 3: above 20% growth control rate)
Bidens bipinnata
  weed control effect, Bidens bipinnata (level): 4 (Level 4: above 50% growth control rate)
echinochloa
  weed control effect, Echinochloa (level): 10
Indian mallow
  weed control effect, Indian mallow (level): 10
foxtail
  weed control effect, Green foxtail (level): 2 (Level 2: 5%-20% growth control rate)
Rorippa indica
  weed control effect, Rorippa indica (level): 10
Wheat [1]
  Wheat (activity level, crop damage): 1 (Level 1: below 5% growth control rate)
shepherd's purse
  shepherd's purse weed controlling effect (activity level): 10
flixweed
  flixweed weed controlling effect (activity level): 10
Corn gromwell
  corn gromwell weed controlling effect (activity level): 10
chickweed
  chickweed weed controlling effect (activity level): 10
corn
  effect on crop, Corn (level): 1 (Level 1: below 5% growth control rate)
Wheat [2]
  effect on crop, Wheat (level): 1 (Level 1: below 5% growth control rate)
rice
  effect on crop, Rice (level): 10

## CCn1nc(C)c(C(=O)c2ccc(C(F)(F)F)c(N3CCCCCC3=O)c2Cl)c1OC(=O)c1cn(C)nc1C [Compound 119]
Crab grass
  weed control effect, Crab grass (level): 5 (Level 5: above 60% growth control rate)
Bidens bipinnata
  weed control effect, Bidens bipinnata (level): 5 (Level 5: above 60% growth control rate)
echinochloa
  weed control effect, Echinochloa (level): 10
Indian mallow
  weed control effect, Indian mallow (level): 3 (Level 3: above 20% growth control rate)
foxtail
  weed control effect, Green foxtail (level): 9 (Level 9: above 95% growth control rate)
Rorippa indica
  weed control effect, Rorippa indica (level): 10
Wheat [1]
  Wheat (activity level, crop damage): 1 (Level 1: below 5% growth control rate)
shepherd's purse
  shepherd's purse weed controlling effect (activity level): 10
flixweed
  flixweed weed controlling effect (activity level): 10
Corn gromwell
  corn gromwell weed controlling effect (activity level): 10
chickweed
  chickweed weed controlling effect (activity level): 10
corn
  effect on crop, Corn (level): 3 (Level 3: above 20% growth control rate)
Wheat [2]
  effect on crop, Wheat (level): 1 (Level 1: below 5% growth control rate)
rice
  effect on crop, Rice (level): 6 (Level 6: above 70% growth control rate)

## CCc1nn(C)c(O)c1C(=O)c1ccc(C(F)(F)F)c(N2CCCCCC2=O)c1Cl [Compound 120]
Crab grass
  weed control effect, Crab grass (level): 1 (Level 1: below 5% growth control rate)
Bidens bipinnata
  weed control effect, Bidens bipinnata (level): 4 (Level 4: above 50% growth control rate)
echinochloa
  weed control effect, Echinochloa (level): 10
Indian mallow
  weed control effect, Indian mallow (level): 4 (Level 4: above 50% growth control rate)
foxtail
  weed control effect, Green foxtail (level): 7 (Level 7: above 80% growth control rate)
Rorippa indica
  weed control effect, Rorippa indica (level): 10
Wheat [1]
  Wheat (activity level, crop damage): 1 (Level 1: below 5% growth control rate)
shepherd's purse
  shepherd's purse weed controlling effect (activity level): 10
flixweed
  flixweed weed controlling effect (activity level): 10
Corn gromwell
  corn gromwell weed controlling effect (activity level): 10
chickweed
  chickweed weed controlling effect (activity level): 10
corn
  effect on crop, Corn (level): 1 (Level 1: below 5% growth control rate)
Wheat [2]
  effect on crop, Wheat (level): 1 (Level 1: below 5% growth control rate)
rice
  effect on crop, Rice (level): 5 (Level 5: above 60% growth control rate)

## CCc1nn(C)c(OC(=O)c2cn(C)nc2C)c1C(=O)c1ccc(C(F)(F)F)c(N2CCCCCC2=O)c1Cl [Compound 121]
Crab grass
  weed control effect, Crab grass (level): 4 (Level 4: above 50% growth control rate)
Bidens bipinnata
  weed control effect, Bidens bipinnata (level): 3 (Level 3: above 20% growth control rate)
echinochloa
  weed control effect, Echinochloa (level): 10
Indian mallow
  weed control effect, Indian mallow (level): 5 (Level 5: above 60% growth control rate)
foxtail
  weed control effect, Green foxtail (level): 9 (Level 9: above 95% growth control rate)
Rorippa indica
  weed control effect, Rorippa indica (level): 10
Wheat [1]
  Wheat (activity level, crop damage): 1 (Level 1: below 5% growth control rate)
shepherd's purse
  shepherd's purse weed controlling effect (activity level): 10
flixweed
  flixweed weed controlling effect (activity level): 10
Corn gromwell
  corn gromwell weed controlling effect (activity level): 10
chickweed
  chickweed weed controlling effect (activity level): 10
corn
  effect on crop, Corn (level): 1 (Level 1: below 5% growth control rate)
Wheat [2]
  effect on crop, Wheat (level): 1 (Level 1: below 5% growth control rate)
rice
  effect on crop, Rice (level): 6 (Level 6: above 70% growth control rate)

## CCc1nn(C)c(OC(=O)c2cn(C)nc2C)c1C(=O)c1ccc(C(F)(F)F)c(-n2cccn2)c1Cl [Compound 131]
Crab grass
  weed control effect, Crab grass (level): 3 (Level 3: above 20% growth control rate)
Bidens bipinnata
  weed control effect, Bidens bipinnata (level): 10
echinochloa
  weed control effect, Echinochloa (level): 10
Indian mallow
  weed control effect, Indian mallow (level): 10
foxtail
  weed control effect, Green foxtail (level): 10
Rorippa indica
  weed control effect, Rorippa indica (level): 10
Wheat [1]
  Wheat (activity level, crop damage): 0
shepherd's purse
  shepherd's purse weed controlling effect (activity level): 10
flixweed
  flixweed weed controlling effect (activity level): 10
Corn gromwell
  corn gromwell weed controlling effect (activity level): 10
chickweed
  chickweed weed controlling effect (activity level): 10
corn
  effect on crop, Corn (level): 4 (Level 4: above 50% growth control rate)
Wheat [2]
  effect on crop, Wheat (level): 0
rice
  effect on crop, Rice (level): 10
